Results as given in ChEMBL document CHEMBL5506059, “Cyanomethylquinolones as a New Class of Potential Multitargeting Broad-Spectrum Antibacterial Agents” (J Med Chem, 2024).
Values after ≈ are worked out from the molar mass of the structure shown. Active and inactive are the calls of the source. The rule behind the calls is not given here.

How the values were obtained:
Cell membrane [1] = test: Induction of cell membrane damage in methicillin-resistant Staphylococcus aureus assessed as increase in nucleic acid leakage at 0 to 2 ug/ml incubated for 12 hrs by optical density based microplate reader analysis; type: cell membranes; conditions: dose 0-2 µg/ml
Enterococcus faecalis [2] = test: Antibacterial activity against Enterococcus faecalis clinical isolate assessed as inhibition of bacterial growth incubated for 24 hrs; type: functional
Escherichia coli [3] = test: Antibacterial activity against Escherichia coli clinical isolate assessed as inhibition of bacterial growth incubated for 24 hrs; type: functional
Staphylococcus aureus [4] = test: Antibiofilm activity in methicillin resistant Staphylococcus aureus assessed as biofilm eradication measured after 24 hrs by crystal violet staining based analysis; type: functional, organism-based; conditions: dose 1-2 µg/ml
[5] = Cytotoxicity against human normal Squamous epithelial cell (NOK) assessed as inhibition of cell growth measured after 24 hrs by MTT assay; type: toxicity, cell-based; conditions: normal squamous epithelial cells (NOK)
Cell membrane [6] = test: Induction of cell membrane depolarization in Pseudomonas aeruginosa assessed as increase in fluorescence intensity at 1 ug/ml measured for 30 mins by DiSC35 dye based fluorescence analysis; type: cell membranes; conditions: dose 1.0 µg/ml
Staphylococcus aureus [7] = test: Antibacterial activity against Staphylococcus aureus CMCC(B)26003 assessed as inhibition of bacterial growth incubated for 24 hrs; type: functional
Enterococcus faecalis [8] = test: Potency index, ratio of ciprofloxacin MIC to test compound MIC for antibacterial activity against vancomycin-resistant Enterococcus faecalis clinical isolate p1-2007225053 assessed as inhibition of bacterial growth incubated for 24 hrs; type: functional
Cell membrane [9] = test: Induction of cell membrane damage in Pseudomonas aeruginosa assessed as increase in nucleic acid leakage at 0 to 2 ug/ml incubated for 12 hrs by optical density based microplate reader analysis; type: cell membranes; conditions: dose 0-2 µg/ml
Staphylococcus aureus [10] = test: Antibacterial activity against Staphylococcus aureus ATCC 29213 assessed as inhibition of bacterial growth incubated for 24 hrs; type: functional
[11] = Hemolytic activity in human Red blood cells at 256 ug/ml measured after 1.5 hrs by absorbance based assay relative to control; type: toxicity, cell-based, Erythrocyte; conditions: red blood cells (erythrocytes), at 256 µg/mL, read-out: Activity
Pseudomonas aeruginosa [12] = test: Antibiofilm activity in Pseudomonas aeruginosa assessed as biofilm eradication measured after 24 hrs by crystal violet staining based analysis; type: functional, organism-based; conditions: dose 1-2 µg/ml
Escherichia coli [13] = test: Antibacterial activity against Escherichia coli ATCC 25922 assessed as inhibition of bacterial growth incubated for 24 hrs; type: functional
Streptococcus pneumoniae = test: Antibacterial activity against Streptococcus pneumoniae ATCC 6305 assessed as inhibition of bacterial growth incubated for 24 hrs; type: functional
Staphylococcus aureus [14] = test: Antibacterial activity against methicillin-resistant Staphylococcus aureus ATCC 43300 assessed as inhibition of bacterial growth incubated for 24 hrs; type: functional
Staphylococcus aureus [15] = test: Antibacterial activity against Staphylococcus aureus ATCC 6538 assessed as inhibition of bacterial growth incubated for 24 hrs; type: functional
Staphylococcus aureus [16] = test: Antibacterial activity against Staphylococcus aureus clinical isolate assessed as inhibition of bacterial growth incubated for 24 hrs; type: functional
[17] = Cytotoxicity against HUVEC cells assessed as cell viability at 25 ug/ml measured after 24 hrs by MTT assay relative to control; type: toxicity, cell-based; conditions: human, at 25 µg/mL, read-out: Activity
Enterococcus faecalis [18] = test: Potency index, ratio of norfloxacin MIC to test compound MIC for antibacterial activity against vancomycin-resistant Enterococcus faecalis clinical isolate p1-2007225053 assessed as inhibition of bacterial growth incubated for 24 hrs; type: functional
Enterococcus faecalis [19] = test: Antibacterial activity against vancomycin-resistant Enterococcus faecalis clinical isolate p1-2007225053 assessed as inhibition of bacterial growth incubated for 24 hrs; type: functional
L02 = test: Cytotoxicity against human L02 cells assessed as reduction in cell viability at 0.78 to 25 ug/ml measured after 24 hrs by MTT assay; type: toxicity, cell-based; conditions: l02, 24 h, dose 0.78-25 µg/ml
Cell membrane [20] = test: Induction of cell membrane permeability in methicillin-resistant Staphylococcus aureus assessed as increase in fluorescence intensity at 1 to 2 ug/ml incubated for 6 hrs by PI staining based fluorescence analysis; type: cell membranes; conditions: dose 1-2 µg/ml
Cell membrane [21] = test: Induction of cell membrane permeability in Pseudomonas aeruginosa assessed as increase in fluorescence intensity at 1 to 2 ug/ml incubated for 6 hrs by PI staining based fluorescence analysis; type: cell membranes; conditions: dose 1-2 µg/ml
Pseudomonas aeruginosa [22] = test: Antibacterial activity against Pseudomonas aeruginosa assessed as reduction in metabolic activity by measuring reduction in fluorescence intensity at 0.5 to 2 times MIC incubated for 6 hrs by alamar blue assay; type: functional, organism-based
Cell membrane [23] = test: Induction of cell membrane depolarization in methicillin-resistant Staphylococcus aureus assessed as increase in fluorescence intensity at 1 ug/ml measured for 30 mins by DiSC35 dye based fluorescence analysis; type: cell membranes; conditions: dose 1.0 µg/ml
Staphylococcus aureus [24] = test: Antibacterial activity against methicillin resistant Staphylococcus aureus clinical isolate assessed as inhibition of bacterial growth at 1 times MIC incubated under dark condition and measured upto 5 hrs relative to control; type: functional
Enterococcus faecium = test: Antibacterial activity against Enterococcus faecium ATCC 19434 assessed as inhibition of bacterial growth incubated for 24 hrs; type: functional
Enterococcus faecalis [25] = test: Antibacterial activity against vancomycin-resistant Enterococcus faecalis clinical isolate p1-2007226001 assessed as inhibition of bacterial growth incubated for 24 hrs; type: functional
Pseudomonas aeruginosa [26] = test: Induction of intracellular ROS generation in Pseudomonas aeruginosa assessed as increase in fluorescence intensity at 2 ug/ml incubated for 6 hrs by DCFH-DA dye based fluorescence analysis; type: functional, organism-based; conditions: dose 2.0 µg/ml
[27] = test system: Staphylococcus epidermidis; test: Antibacterial activity against Staphylococcus epidermidis ATCC 12228 assessed as inhibition of bacterial growth incubated for 24 hrs; type: functional
Klebsiella pneumoniae = test: Antibacterial activity against Klebsiella pneumoniae clinical isolate assessed as inhibition of bacterial growth incubated for 24 hrs; type: functional
Staphylococcus aureus [28] = test: Antibacterial activity against ciprofloxacin-treated Staphylococcus aureus ATCC 6538 assessed as inhibition of bacterial growth measured after 24 hrs; type: functional
Acinetobacter baumannii = test: Antibacterial activity against Acinetobacter baumannii clinical isolate assessed as inhibition of bacterial growth incubated for 24 hrs; type: functional
Staphylococcus aureus [29] = test: Antibacterial activity against methicillin resistant Staphylococcus aureus assessed as reduction in metabolic activity by measuring reduction in fluorescence intensity at 0.5 to 2 times MIC incubated for 6 hrs by alamar blue assay; type: functional, organism-based
Staphylococcus aureus [30] = test: Resistance development in methicillin resistant Staphylococcus aureus assessed as increase in MIC measured after 20 days; type: functional, organism-based; conditions: time 20.0 day
[31] = Cytotoxicity against human FHC assessed as inhibition of cell growth measured after 24 hrs by MTT assay; type: toxicity, cell-based; conditions: FHC cells
Staphylococcus aureus [32] = test: Antibacterial activity against methicillin resistant Staphylococcus aureus clinical isolate assessed as inhibition of bacterial growth incubated for 24 hrs; type: functional
Pseudomonas aeruginosa [33] = test: Antibacterial activity against ciprofloxacin-treated Pseudomonas aeruginosa ATCC 27853 assessed as inhibition of bacterial growth measured after 24 hrs; type: functional
Pseudomonas aeruginosa [34] = test: Antibacterial activity against Pseudomonas aeruginosa clinical isolate assessed as inhibition of bacterial growth incubated for 24 hrs; type: functional
Pseudomonas aeruginosa [35] = test: Antibacterial activity against Pseudomonas aeruginosa ATCC 27853 assessed as inhibition of bacterial growth incubated for 24 hrs; type: functional
Staphylococcus aureus [36] = test: Antibacterial activity against Staphylococcus aureus CMCC(B)26001 assessed as inhibition of bacterial growth incubated for 24 hrs; type: functional
HUVEC = test: Cytotoxicity against HUVEC cells assessed as reduction in cell viability at 0.78 to 25 ug/ml measured after 24 hrs by MTT assay; type: toxicity, cell-based; conditions: human, dose 0.78-25 µg/ml
Erythrocyte = test: Hemolytic activity in human Red blood cells assessed as concentration required for 5% hemolysis measured after 1.5 hrs by absorbance based assay; type: toxicity, cell-based
Staphylococcus aureus [37] = test: Antibacterial activity against Staphylococcus aureus ATCC 12600 assessed as inhibition of bacterial growth incubated for 24 hrs; type: functional
Pseudomonas aeruginosa [38] = test: Induction of intracellular ROS generation in Pseudomonas aeruginosa assessed as increase in fluorescence intensity at 2 ug/ml incubated for 6 hrs in presence of N-acetyl-L-cysteine by DCFH-DA dye based fluorescence analysis; type: functional, organism-based; conditions: dose 2.0 µg/ml
Streptococcus pyogenes = test: Antibacterial activity against Streptococcus pyogenes ATCC 19615 assessed as inhibition of bacterial growth incubated for 24 hrs; type: functional
Staphylococcus aureus [39] = test: Antibacterial activity against Staphylococcus aureus ATCC 25923 assessed as inhibition of bacterial growth incubated for 24 hrs; type: functional
Pseudomonas aeruginosa [40] = test: Resistance development in Pseudomonas aeruginosa assessed as increase in MIC measured after 20 days; type: functional, organism-based; conditions: time 20.0 day

C[C@H]1COc2c(CC#N)c(F)cc3c(=O)c(C(=O)O)cn1c23
Activity (Cell membrane [1]): Active
MIC (Enterococcus faecalis [2]): 2 µg/mL (≈ 6.62 µM)
MIC (Escherichia coli [3]): 1 µg/mL (≈ 3.31 µM)
Activity (Staphylococcus aureus [4]): Dose-Dependent Effect
IC50 at 24 h [5]: 54 µg/mL (≈ 179 µM)
Activity (Cell membrane [6]): Active
MIC (Staphylococcus aureus [7]): 0.125 µg/mL (≈ 0.414 µM)
Ratio (Enterococcus faecalis [8]): 2
Activity (Cell membrane [9]): Active
MIC (Staphylococcus aureus [10]): 0.5 µg/mL (≈ 1.65 µM)
hemolysis at 1.5 h, 256 ug/ml [11]: < 1%
Activity (Pseudomonas aeruginosa [12]): Dose-Dependent Effect
MIC (Escherichia coli [13]): 0.25 µg/mL (≈ 0.827 µM)
MIC (Streptococcus pneumoniae): 0.5 µg/mL (≈ 1.65 µM)
MIC (Staphylococcus aureus [14]): 0.125 µg/mL (≈ 0.414 µM)
MIC (Staphylococcus aureus [15]): 0.25 µg/mL (≈ 0.827 µM)
MIC (Staphylococcus aureus [16]): 0.25 µg/mL (≈ 0.827 µM)
viability at 24 h, 25 ug/ml [17]: > 90%
Ratio (Enterococcus faecalis [18]): 8
MIC (Enterococcus faecalis [19]): 0.125 µg/mL (≈ 0.414 µM)
Activity (L02): Non-Toxic
Activity (Cell membrane [20]): Active
Activity (Cell membrane [21]): Active
Activity (Pseudomonas aeruginosa [22]): Active
Activity (Cell membrane [23]): Active
inhibition (INH) (Staphylococcus aureus [24]): ~100%
MIC (Enterococcus faecium): 0.5 µg/mL (≈ 1.65 µM)
MIC (Enterococcus faecalis [25]): 0.5 µg/mL (≈ 1.65 µM)
Activity (Pseudomonas aeruginosa [26]): Active
MIC [27]: 0.25 µg/mL (≈ 0.827 µM)
MIC (Klebsiella pneumoniae): 1 µg/mL (≈ 3.31 µM)
MIC (Staphylococcus aureus [28]): 2 µg/mL (≈ 6.62 µM)
MIC (Acinetobacter baumannii): 0.25 µg/mL (≈ 0.827 µM)
Activity (Staphylococcus aureus [29]): Active
Activity (Staphylococcus aureus [30]): inactive
IC50 at 24 h [31]: 21 µg/mL (≈ 69.5 µM)
MIC (Staphylococcus aureus [32]): 0.5 µg/mL (≈ 1.65 µM)
MIC (Pseudomonas aeruginosa [33]): 2 µg/mL (≈ 6.62 µM)
MIC (Pseudomonas aeruginosa [34]): 0.25 µg/mL (≈ 0.827 µM)
MIC (Pseudomonas aeruginosa [35]): 0.25 µg/mL (≈ 0.827 µM)
MIC (Staphylococcus aureus [36]): 0.125 µg/mL (≈ 0.414 µM)
Activity (HUVEC): Non-Toxic
HC5 (Erythrocyte): > 10000 µg/mL
MIC (Staphylococcus aureus [37]): 0.25 µg/mL (≈ 0.827 µM)
Activity (Pseudomonas aeruginosa [38]): inactive
MIC (Streptococcus pyogenes): 2 µg/mL (≈ 6.62 µM)
MIC (Staphylococcus aureus [39]): 0.25 µg/mL (≈ 0.827 µM)
Activity (Pseudomonas aeruginosa [40]): inactive
